Read-outs that look alike come from different tables or passages of the source.
Assays:
[1] = tested on: Caco-2 human intestinal cells; test: Parallel accumulation and retention experiment in Caco-2 monolayers; assay type: in vitro ADME; settings: after 3 h accumulation, 1 h in catechin/dimer-free PBS; mean ± SEM, n=4
[2] = cited from earlier work
[3] = Stability in cell-free experimental media; assay type: physicochemical; settings: cell-free media (pH 5 PBS), 37°C, media 5 (EGCG), media 2 (dimers), mean ± SEM, n=4
[4] = cited from earlier work; remark: listed apart in the source
Caco-2 cells [5] = settings: media containing 50 µM ECG; cited from earlier work
U937 cells = settings: cited from earlier work
rat squalene epoxidase = settings: relative to EGCG; cited from earlier work
lipase = settings: cited from earlier work
[6] = tested on: human histolytic lymphoma U937 cells; settings: cited from earlier work
[7] = tested on: fibrosarcoma HT1080 cells; settings: cited from earlier work
Caco-2 monolayers [8] = settings: cited from earlier work
Caco-2 monolayers [9] = settings: cited from earlier work; remark: listed apart in the source
Caco-2 cells [10] = settings: cited from earlier work
[11] = tested on: Caco-2 human intestinal cells (TC7 clone); test: Accumulation of catechin monomers and auto-oxidation dimers by Caco-2 monolayers

Question: For theasinensins (THSNs) A/D [THSNs A/D], which “1 h Retention, Absolute” value [1] is on record?
Answer: 7.08 ± 2.2 pmol/well

Question: And the “O2^•− scavenging activity compared with EGCG” value [2]?
Answer: equal to or greater than EGCG

Question: And the “Stability over 3 h (percent of initial concentration)” value [3]?
Answer: 100 ± 0.36%

Question: What about the “Fe^2+ chelation activity compared with EGCG” value [4] of the same compound?
Answer: equal to or greater than EGCG

Question: With `O=C(O[C@@H]1Cc2c(O)cc(O)cc2O[C@@H]1c1ccc(O)c(O)c1)c1cc(O)c(O)c(O)c1` [ECG, (−)-epicatechin gallate] as the compound, how does the 1 h accumulation (Caco-2 cells [5]) read?
Answer: roughly 3 nmol/mg protein

Question: Which results are given for `O=C(O[C@@H]1Cc2c(O)cc(O)cc2O[C@@H]1c1cc(O)c(O)c(O)c1-c1c([C@H]2Oc3cc(O)cc(O)c3C[C@H]2OC(=O)c2cc(O)c(O)c(O)c2)cc(O)c(O)c1O)c1cc(O)c(O)c(O)c1` [THSN A]?
Answer: inhibition of growth compared with EGCG (U937 cells): more effective at inhibiting the growth of U937 cells than EGCG; IC50 value, fold lower than EGCG (rat squalene epoxidase): 5 ×; inhibition of lipase compared with EGCG (lipase): more effective inhibitor of lipase than EGCG; induction of apoptosis [6]: induced apoptosis

Question: With `O=C(O[C@@H]1Cc2c(O)cc(O)cc2O[C@@H]1c1cc(O)c(O)c(O)c1-c1c([C@H]2Oc3cc(O)cc(O)c3C[C@H]2OC(=O)c2cc(O)c(O)c(O)c2)cc(O)c(O)c1O)c1cc(O)c(O)c(O)c1` [THSN D] as the compound, how does the “inhibition of invasive activity compared with EC, EGC and EGCG” value [7] read?
Answer: better inhibitor of the invasive activity of fibrosarcoma HT1080 cells than EC and EGC, but was less effective than EGCG

Question: What about the “induction of apoptosis compared with EGCG” value [6] of the same compound?
Answer: more effective than EGCG

Question: For `Oc1cc(O)c2c(c1)O[C@H](c1ccc(O)c(O)c1)[C@@H](O)C2` [(+)-C, (+)-catechin], which membrane adsorption (Caco-2 monolayers [8]) is on record?
Answer: 0.15–0.2 % transmembrane resistance, Ω cm^2

Question: What about the “apparent apical → basolateral permeability” value (Caco-2 monolayers [9]) of the same compound?
Answer: 0.8 ×10⁻⁶ cm/s

Question: With `Oc1cc(O)c2c(c1)O[C@H](c1cc(O)c(O)c(O)c1)[C@H](O)C2` [EGC, (−)-epigallocatechin] as the compound, how does the 3 h accumulation (Caco-2 cells [10]) read?
Answer: 0.1–0.5 nmol/mg protein

Question: Which “apparent apical → basolateral permeability” value (Caco-2 monolayers [9]) does the source give for `Oc1cc(O)c2c(c1)O[C@H](c1ccc(O)c(O)c1)[C@@H](O)[C@@H]2c1c(O)cc(O)c2c1O[C@H](c1ccc(O)c(O)c1)[C@@H](O)C2` [procyanidin dimer B3, (+)-C-(4α→8)-(+)-C] here?
Answer: 2 ×10⁻⁶ cm/s

Question: With `O=C(O[C@@H]1Cc2c(O)cc(O)cc2O[C@@H]1c1cc(O)c(O)c(O)c1)c1cc(O)c(O)c(O)c1` [EGCG, (−)-epigallocatechin gallate] as the compound, how does the “net accumulation at 3 h (amount per mg protein)” value ([11]; 37°C, pH 5 PBS, media from EGCG + EGC (media 3, 6)) read?
Answer: 1.89 ± 0.15 nmol/mg

Question: What about the “Three h accumulation (range over monomer media)” value ([11]; 3 h, range over the media that contain the monomer) of the same compound?
Answer: 1.24–1.35%

Question: What about the “Stability over 3 h (percent of initial concentration)” value [3] of the same compound?
Answer: 91.8 ± 6.4%

Question: And the 3 h accumulation (Caco-2 cells [10]; previously reported by the authors)?
Answer: 0.2–2.5 nmol/mg protein
